Values joined by “and” are separate entries in the source; they are usually repeats but may differ in a detail not shown here. Equal values may be shown once. Inconclusive results and toxic doses are left out. No stated cut-off is given here; in the data, active means T/C of 150% or more; inactive means T/C below 125%.
Tested on: L1210 leukemia ip in BDF1 mice, survival T/C
Test: NCI In Vivo Anticancer Drug Screen. Data for tumor model L1210 Leukemia (intraperitoneal) in B6D2F1 (BDF1) mice
Details: endpoint: mean survival time, higher = longer survival
Procedure, shortened: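 Survival endpoint. Drug-treated group vs vehicle group, expressed as T divided by C. Tumor passaged by transplantation.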

[1] = dose: 100.0 mg/kg/injection, schedule: Q01DX009 (ip), vehicle: Klucel (hydroxypropylcellulose) (HPC)
[2] = dose: 100.0 mg/kg/injection, schedule: Q04DX003 (ip), vehicle: Klucel (hydroxypropylcellulose) (HPC)
[3] = dose: 100.0 mg/kg/injection, schedule: Q04DX002 (ip), vehicle: Klucel (hydroxypropylcellulose) (HPC)
[4] = dose: 200.0 mg/kg/injection, schedule: Q04DX002 (ip), vehicle: Klucel (hydroxypropylcellulose) (HPC)
[5] = dose: 400.0 mg/kg/injection, schedule: Q04DX002 (ip), vehicle: Klucel (hydroxypropylcellulose) (HPC)
[6] = dose: 200.0 mg/kg/injection, schedule: Q01DX009 (ip), vehicle: Klucel (hydroxypropylcellulose) (HPC)
[7] = dose: 400.0 mg/kg/injection, schedule: Q01DX009 (ip), vehicle: Klucel (hydroxypropylcellulose) (HPC)
[8] = dose: 100.0 mg/kg/injection, schedule: Q01DX001 (ip), vehicle: saline with Tween-80
[9] = dose: 200.0 mg/kg/injection, schedule: Q01DX001 (ip), vehicle: saline with Tween-80
[10] = dose: 400.0 mg/kg/injection, schedule: Q01DX001 (ip), vehicle: saline with Tween-80
[11] = dose: 50.0 mg/kg/injection, schedule: Q01DX009 (ip), vehicle: saline with Tween-80
[12] = dose: 100.0 mg/kg/injection, schedule: Q01DX001 (ip), vehicle: carboxymethylcellulose (CMC)
[13] = dose: 200.0 mg/kg/injection, schedule: Q01DX001 (ip), vehicle: carboxymethylcellulose (CMC)

Measured: T/C

CC(=O)Nc1ccc(-c2cnc3ccccc3c2)cc1
inactive: dose: 5.0 mg/kg/injection, schedule: Q01DX001 (ip), vehicle: saline 106 % of control | dose: 10.0 mg/kg/injection, schedule: Q01DX001 (ip), vehicle: saline 106 % of control | dose: 20.0 mg/kg/injection, schedule: Q01DX001 (ip), vehicle: saline 97 % of control | dose: 40.0 mg/kg/injection, schedule: Q01DX001 (ip), vehicle: saline 90 % of control | dose: 80.0 mg/kg/injection, schedule: Q01DX001 (ip), vehicle: saline 95 % of control

CC1=CC(=O)N(CO)C1=O
inactive: dose: 25.0 mg/kg/injection, schedule: Q04DX003 (ip), vehicle: water 94 % of control | dose: 50.0 mg/kg/injection, schedule: Q04DX003 (ip), vehicle: water 98 % of control

O=C(NCCCl)Nc1cccnc1
inactive: dose: 6.25 mg/kg/injection, schedule: Q01DX009 (ip), vehicle: saline 104 % of control | dose: 12.5 mg/kg/injection, schedule: Q01DX009 (ip), vehicle: saline 101 % of control | dose: 12.5 mg/kg/injection, schedule: Q04DX003 (ip), vehicle: saline with Tween-80 102 % of control | dose: 25.0 mg/kg/injection, schedule: Q01DX009 (ip), vehicle: saline 105 % of control | dose: 25.0 mg/kg/injection, schedule: Q04DX003 (ip), vehicle: saline with Tween-80 96 % of control

CN1CCN(c2ccc(Cl)cc2)CC1
inactive: dose: 25.0 mg/kg/injection, schedule: Q01DX009 (ip), vehicle: Klucel (hydroxypropylcellulose) (HPC) 97 % of control | dose: 25.0 mg/kg/injection, schedule: Q04DX003 (ip), vehicle: Klucel (hydroxypropylcellulose) (HPC) 97 % of control | dose: 50.0 mg/kg/injection, schedule: Q01DX009 (ip), vehicle: Klucel (hydroxypropylcellulose) (HPC) 106 % of control | dose: 50.0 mg/kg/injection, schedule: Q04DX003 (ip), vehicle: Klucel (hydroxypropylcellulose) (HPC) 105 % of control | [1] 100 % of control | [2] 106 % of control

COc1ccc(-n2cccc2/C=N/O)cc1
inactive: [3] 96 % of control | [4] 100 % of control | [5] 86 % of control

CC(=O)OC1CCC2(C)C(=CCC3C2CCC2(C)C3CC(Br)C2C(C)=O)C1 (stereo not given)
inactive: [2] 107 % of control | dose: 200.0 mg/kg/injection, schedule: Q04DX003 (ip), vehicle: Klucel (hydroxypropylcellulose) (HPC) 88 % of control | dose: 400.0 mg/kg/injection, schedule: Q04DX003 (ip), vehicle: Klucel (hydroxypropylcellulose) (HPC) 103 % of control

O=[N+]([O-])c1cccc(C=Nc2ccccc2Cl)c1
inactive: dose: 100.0 mg/kg/injection, schedule: Q01DX001 (ip), vehicle: Klucel (hydroxypropylcellulose) (HPC) 101 % of control and 103 % of control | dose: 200.0 mg/kg/injection, schedule: Q01DX001 (ip), vehicle: Klucel (hydroxypropylcellulose) (HPC) 101 % of control | dose: 400.0 mg/kg/injection, schedule: Q01DX001 (ip), vehicle: Klucel (hydroxypropylcellulose) (HPC) 101 % of control and 103 % of control

CN(C)C(=O)Nc1cccc2nsnc12
inactive: [1] 106 % of control | [6] 104 % of control | [7] 102 % of control

CCC(C(N)=O)N1C(=O)C2C3CCC(O3)C2C1=O (stereo not given)
inactive: dose: 100.0 mg/kg/injection, schedule: Q04DX003 (ip), vehicle: saline 101 % of control | dose: 200.0 mg/kg/injection, schedule: Q04DX003 (ip), vehicle: saline 97 % of control | dose: 400.0 mg/kg/injection, schedule: Q04DX003 (ip), vehicle: saline 101 % of control

c1ccc(C2SCCCS2)cc1
inactive: [1] 96 % of control | [6] 97 % of control | [7] 94 % of control

C[C-]=O.C[C-]=O.[Br][Pd][Br]
inactive: [8] 97 % of control | [9] 100 % of control | [10] 107 % of control

COc1ccc(/C=N/NC(=S)Nc2ccccc2)cc1OC
inactive: [1] 94 % of control and 100 % of control | [6] 89 % of control | [7] 96 % of control and 86 % of control

N#CCCC1=C(O)CCCC1=O
inactive: [11] 93 % of control | dose: 100.0 mg/kg/injection, schedule: Q01DX009 (ip), vehicle: saline with Tween-80 93 % of control | dose: 200.0 mg/kg/injection, schedule: Q01DX009 (ip), vehicle: saline with Tween-80 97 % of control

CCOC(=O)C1CNc2ccccc2N1 (stereo not given)
inactive: dose: 25.0 mg/kg/injection, schedule: Q01DX009 (ip), vehicle: saline with Tween-80 93 % of control | [11] 110 % of control | dose: 100.0 mg/kg/injection, schedule: Q04DX003 (ip), vehicle: saline with Tween-80 105 % of control

COc1cc(CC(C(=O)OC(C)(C)C)C(=O)OC(C)(C)C)cc(OC)c1OC
inactive: dose: 50.0 mg/kg/injection, schedule: Q01DX001 (ip), vehicle: carboxymethylcellulose (CMC) 101 % of control | [12] 97 % of control | [13] 97 % of control | dose: 400.0 mg/kg/injection, schedule: Q01DX001 (ip), vehicle: carboxymethylcellulose (CMC) 109 % of control

CN(C)c1ccc(N=Nc2cc(Cl)cc(Cl)c2)cc1
inactive: [12] 89 % of control | [13] 91 % of control

O=C1OC(c2cccc(Cl)c2)=N/C1=C\c1cc(Br)cc(Br)c1O
inactive: [3] 92 % of control | [4] 100 % of control | [5] 89 % of control

c1ccc(CCCCc2ccc(CCCCc3ccccc3)cc2)cc1
inactive: dose: 100.0 mg/kg/injection, schedule: Q01DX001 (ip), vehicle: saline 101 % of control | dose: 200.0 mg/kg/injection, schedule: Q01DX001 (ip), vehicle: saline 93 % of control | dose: 400.0 mg/kg/injection, schedule: Q01DX001 (ip), vehicle: saline 93 % of control

FC(F)(F)Cc1cccc(C(F)(F)F)c1
inactive: [8] 113 % of control | [9] 103 % of control | [10] 105 % of control

O=C(NCCCCCCCCCCCCNC(=O)Nc1cccc(C2=NCC(O)CN2)c1)Nc1cccc(C2=NCC(O)CN2)c1 (stereo not given)
inactive: dose: 62.5 mg/kg/injection, schedule: Q01DX Z (ip), vehicle: carboxymethylcellulose (CMC) 105 % of control | dose: 125.0 mg/kg/injection, schedule: Q01DX Z (ip), vehicle: carboxymethylcellulose (CMC) 94 % of control
